In US7371766B2, “Curcumin analogs with anti-tumor and anti-angiogenic properties” (Emory University, priority 1999, dated 2008):
Like-named read-outs stand apart in the source and are kept apart here.

Experiments:
RPMI-7951 human melanoma = assay: Neutral Red Assay, cell viability, RPMI-7951; conditions: for Cell Viability / Neutral Red Uptake, %: RPMI-7951; for Cell Viability: DMSO = 100; for viability at 5 µM / viability at 20 µM: Homo sapiens; for Neutral Red Uptake, %: 72 hours
[1] = tested on: Tissue Factor (TF) production by human melanoma cell line RPMI-7951; assay: TF ELISA, RPMI-7951; assay type: cell-based
Experimental: IMUBIND Tissue Factor ELISA Kit (American Diagnostica Inc, Greenwich, Conn.) was used to determine TF concentration in each sample. The ELISA was carried out according to manufacturer's procedure.

[2] = tested on: Vascular Endothelial Growth Factor (VEGF) production by human prostate cancer cell line PC-3; assay: VEGF ELISA, PC-3; assay type: cell-based; conditions: for VEGF (% of DMSO): DMSO = 100%
[3] = tested on: Vascular Endothelial Growth Factor (VEGF) production by human prostate cancer cell line DU-145; assay: VEGF ELISA, DU-145; assay type: cell-based; conditions: for VEGF (% of DMSO): DMSO = 100%
[4] = tested on: Vascular Endothelial Growth Factor (VEGF) production by human melanoma cell line RPMI-7951; assay: VEGF ELISA, RPMI-7951; conditions: for VEGF / VEGF ELISA: RPMI-7951; for activity at 5 µM / activity at 20 µM: Homo sapiens, RPMI-7951, 72 h, read-out: VEGF; for VEGF ELISA: DMSO control 3713
[5] = tested on: Tissue Factor (TF) production by human prostate cancer cell line DU-145; assay: TF ELISA, DU-145; assay type: cell-based; conditions: 20 μM; for TF (% of DMSO): DMSO = 100%; for TF: mean of triplicate and S.D., DMSO 7699 ± 406
Experimental: (§1) Cells were treated with 1% Triton X-100 in PBS and left overnight at 4° C. overnight to solubilize TF. […] IMUBIND Tissue Factor ELISA Kit (American Diagnostica Inc, Greenwich, Conn.) was used to determine TF concentration in each sample. The ELISA was carried out according to manufacturer's procedure.

[6] = tested on: Tissue Factor (TF) production by human prostate cancer cell line PC-3; assay: TF ELISA, PC-3; assay type: cell-based; conditions: 20 μM; for TF (% of DMSO): DMSO = 100%; for TF: mean of triplicate and S.D., DMSO 203 ± 6
Experimental: as §1

HUVECS = assay: Emory Laboratory Cell Screen, Neutral Red, HUVECS; assay type: cell-based, human; conditions: 72 hours, read-out: Median Growth Inhibitory Concentration (GI50)
Experimental: (§2) Human tumor and endothelial cell lines were treated for 72 hours with compounds at a minimum of four concentrations between 0.1 μM-40 μM. Neutral Red assay was used to calculate cell viability.

[7] = tested on: Human tumor and endothelial cell lines; assay: Emory Laboratory Cell Screen, mean over cell lines; assay type: cell-based; conditions: Mean over the Emory cell lines; 72 hours; read-out: Median Growth Inhibitory Concentration (GI50), Mean
Experimental: as §2

RPMI 7951 = assay: Emory Laboratory Cell Screen, Neutral Red, RPMI 7951; assay type: cell-based, human; conditions: RPMI 7951, Melanoma, 72 hours, read-out: Median Growth Inhibitory Concentration (GI50)
Experimental: as §2

[8] = Table 5, 5 μM, DMSO control 7054
[9] = Table 5, 20 μM, DMSO control 7054
[10] = 20 μM, mean of triplicate and S.D., DMSO 2103 ± 100
[11] = Table 4, 20 μM, mean of triplicate and S.D.
[12] = 20 μM, mean of triplicate and S.D., DMSO 18760 ± 2633
[13] = RPMI-7951, 72 h, read-out: Neutral Red Uptake, %
[14] = RPMI-7951, read-out: Cell Viability
[15] = 5 μM, DMSO control 4197 (EF-25: 1045)

SMILES: COc1cc(CC2CCCC(Cc3ccc(O)c(OC)c3)C2=O)ccc1O (centres unmarked) [Compound A231U]
- Cell Viability (RPMI-7951 human melanoma; 20 μM): 80%
- TF ([1]; 5 μM, DMSO = 100): 78%
- TF ([1]; 20 μM, DMSO = 100): 85%
- TF [1, 8]: 5473 pg/mL
- TF [1, 9]: 5981 pg/mL
- VEGF (% of DMSO) ([2]; 20 μM): (47%)
- VEGF [2, 10]: 984 ± 349 pg/mL
- VEGF ([2]; Table 4, 20 μM, DMSO = 100): 47%
- VEGF [2, 11]: 984 ± 349 pg/mL
- VEGF (% of DMSO) ([3]; 20 μM): (149%)
- VEGF [3, 12]: 27875 ± 4446 pg/mL
- VEGF ([3]; Table 4, 20 μM, DMSO = 100): 149%
- VEGF [3, 11]: 27875 ± 4446 pg/mL
- VEGF ([4]; 20 μM, DMSO = 100): 34%

SMILES: O=C(C=Cc1ccc(O)cc1)C=Cc1ccc(O)cc1 [EF1, 1,5-Bis(4-hydroxyphenyl)penta-1,4-dien-3-one]
- viability at 5 µM (RPMI-7951 human melanoma; [13]): 92%
- viability at 20 µM (RPMI-7951 human melanoma; [13]): 8%
- viability at 5 µM (RPMI-7951 human melanoma; [14]): 98%
- viability at 20 µM (RPMI-7951 human melanoma; [14]): 43%
- VEGF (% of DMSO) ([2]; 20 μM): (15%)
- VEGF [2, 10]: 325 ± 75 pg/mL
- VEGF ([2]; Table 4, 20 μM, DMSO = 100): 15%
- VEGF [2, 11]: 325 ± 75 pg/mL
- TF (% of DMSO) [5]: (167%)
- TF [5]: 12879 ± 149 pg/mL
- VEGF (% of DMSO) ([3]; 20 μM): (105%)
- VEGF [3, 12]: 19616 ± 4624 pg/mL
- VEGF ([3]; Table 4, 20 μM, DMSO = 100): 105%
- VEGF [3, 11]: 19616 ± 4624 pg/mL
- activity at 5 µM [4]: 61%
- activity at 20 µM [4]: 0%
- VEGF ELISA ([4]; 5 μM): 1923 pg/ml/well
- VEGF [4, 15]: 2573 pg/mL
- VEGF ELISA ([4]; 20 μM): 234 pg/ml/well
- VEGF ([4]; 20 μM, DMSO control 4197): 0 pg/mL
- TF (% of DMSO) [6]: (53%)
- TF [6]: 107 ± 9 pg/mL

SMILES: O=C(C=Cc1cccc(O)c1)C=Cc1cccc(O)c1 [EF3, 1,5-Bis(3-hydroxyphenyl)penta-1,4-dien-3-one]
- viability at 5 µM (RPMI-7951 human melanoma; [13]): 77%
- viability at 20 µM (RPMI-7951 human melanoma; [13]): 8%
- viability at 5 µM (RPMI-7951 human melanoma; [14]): 88%
- viability at 20 µM (RPMI-7951 human melanoma; [14]): 43%
- VEGF (% of DMSO) ([2]; 20 μM): (44%)
- VEGF [2, 10]: 917 ± 261 pg/mL
- VEGF ([2]; Table 4, 20 μM, DMSO = 100): 44%
- VEGF [2, 11]: 917 ± 261 pg/mL
- TF (% of DMSO) [5]: (87%)
- TF [5]: 6687 ± 188 pg/mL
- VEGF (% of DMSO) ([3]; 20 μM): (138%)
- VEGF [3, 12]: 25901 ± 620 pg/mL
- VEGF ([3]; Table 4, 20 μM, DMSO = 100): 149%
- VEGF [3, 11]: 25901 ± 620 pg/mL
- activity at 5 µM [4]: 67%
- activity at 20 µM [4]: 0%
- VEGF ELISA ([4]; 5 μM): 2092 pg/ml/well
- VEGF [4, 15]: 2827 pg/mL
- VEGF ELISA ([4]; 20 μM): 230 pg/ml/well
- VEGF ([4]; 20 μM, DMSO control 4197): 0 pg/mL
- TF (% of DMSO) [6]: (69%)
- TF [6]: 140 ± 8 pg/mL

SMILES: COc1ccc(/C=C/C(=O)/C=C/c2ccc(OC)c(OC)c2)cc1OC [MD6]
- Neutral Red Uptake, % (RPMI-7951 human melanoma; 5 μM): 97 % of control
- Cell Viability (RPMI-7951 human melanoma; 5 μM): 101%
- Neutral Red Uptake, % (RPMI-7951 human melanoma; 20 μM): 6 % of control
- Cell Viability (RPMI-7951 human melanoma; 20 μM): 42%
- TF ([1]; 1 μM, DMSO = 100): 91%
- TF ([1]; 1 μM, DMSO control 7054): 6400 pg/mL
- TF ([1]; 5 μM, DMSO = 100): 25%
- TF ELISA ([1]; 5 μM, DMSO control 7054): 1753 pg/ml/well
- TF [1, 8]: 1753 pg/mL
- VEGF (% of DMSO) ([2]; 20 μM): (87%)
- VEGF [2, 10]: 1820 ± 283 pg/mL
- VEGF ([2]; Table 4, 20 μM, DMSO = 100): 87%
- VEGF [2, 11]: 1820 ± 283 pg/mL
- GI50 (HUVECS): 3.8 µM
- VEGF (% of DMSO) ([3]; 20 μM): (98%)
- VEGF [3, 12]: 18428 ± 3377 pg/mL
- VEGF ([3]; Table 4, 20 μM, DMSO = 100): 98%
- VEGF [3, 11]: 18428 ± 3377 pg/mL
- VEGF ([4]; 5 μM, DMSO = 100): 76%
- VEGF ELISA ([4]; 5 μM): 2826 pg/ml/well
- VEGF [4, 15]: 3200 pg/mL
- VEGF ([4]; 20 μM, DMSO = 100): 1%
- VEGF ELISA ([4]; 20 μM): 273 pg/ml/well
- VEGF ([4]; 20 μM, DMSO control 4197): 30 pg/mL
- GI50 [7]: 2.9 µM
- GI50 (RPMI 7951): 1.9 µM

SMILES: COc1ccc(CCC(O)CCc2ccc(OC)c(OC)c2)cc1OC [MD279L, 1,5-Bis(3,4-dimethoxyphenyl)penta-3-ol]
- Neutral Red Uptake, % (RPMI-7951 human melanoma; 5 μM): 100 % of control
- Cell Viability (RPMI-7951 human melanoma; 5 μM): 110%
- Neutral Red Uptake, % (RPMI-7951 human melanoma; 20 μM): 100 % of control
- Cell Viability (RPMI-7951 human melanoma; 20 μM): 109%
- TF ([1]; 5 μM, DMSO = 100): 82%
- TF ELISA ([1]; 5 μM, DMSO control 7054): 5791 pg/ml/well
- TF ([1]; 20 μM, DMSO = 100): 83%
- TF ELISA ([1]; 20 μM, DMSO control 7054): 5858 pg/ml/well
- TF [1, 8]: 5791 pg/mL
- TF [1, 9]: 5858 pg/mL
- VEGF ([4]; 5 μM, DMSO = 100): 22%
- VEGF ELISA ([4]; 5 μM): 2235 pg/ml/well
- VEGF [4, 15]: 904 pg/mL
- VEGF ([4]; 20 μM, DMSO = 100): 0%
- VEGF ELISA ([4]; 20 μM): 1603 pg/ml/well
- VEGF ([4]; 20 μM, DMSO control 4197): 0 pg/mL

SMILES: COc1ccc(CCC(=O)CCc2ccc(OC)c(OC)c2)cc1OC [MD279U, 1,5-Bis(3,4-dimethoxyphenyl)penta-3-one]
- Neutral Red Uptake, % (RPMI-7951 human melanoma; 5 μM): 100 % of control
- Cell Viability (RPMI-7951 human melanoma; 5 μM): 112%
- Neutral Red Uptake, % (RPMI-7951 human melanoma; 20 μM): 100 % of control
- Cell Viability (RPMI-7951 human melanoma; 20 μM): 113%
- TF ([1]; 5 μM, DMSO = 100): 102%
- TF ELISA ([1]; 5 μM, DMSO control 7054): 7200 pg/ml/well
- TF ([1]; 20 μM, DMSO = 100): 75%
- TF ELISA ([1]; 20 μM, DMSO control 7054): 5316 pg/ml/well
- TF [1, 8]: 7200 pg/mL
- TF [1, 9]: 5316 pg/mL
- VEGF ([4]; 5 μM, DMSO = 100): 28%
- VEGF ELISA ([4]; 5 μM): 2511 pg/ml/well
- VEGF [4, 15]: 1197 pg/mL
- VEGF ([4]; 20 μM, DMSO = 100): 18%
- VEGF ELISA ([4]; 20 μM): 779 pg/ml/well
- VEGF ([4]; 20 μM, DMSO control 4197): 1179 pg/mL

SMILES: CC(=O)Oc1ccccc1C=CC(=O)C=Cc1ccccc1OC(C)=O [MD286]
- GI50 (HUVECS): 2.3 µM
- GI50 [7]: 1.7 µM
- GI50 (RPMI 7951): 1 µM
